Source: patent publication US11660326B2, “Bacterial-binding peptides for treatment of infectious diseases and related inflammatory processes” (priority 2018, dated 2023)

Assays:
[1] = system: mice undergoing CLP-induced septic shock; test: Mouse survival following CLP-induced septic shock; format: in vivo, C57BL/6J mice; conditions: for survival: single 6 mg/kg i.v. at +1 h post CLP, FIG. 7; for effect on mice survival, in words: CLP-induced sepsis, compared to saline-treated group
Experimental: FIG. 7. Comparative therapeutic effects of i.v. infused CD6-derived peptides on mouse survival following Cecal Ligation and Puncture (CLP)-induced sepsis. (A, B) C57BL/6J mice were i.v. infused with saline (n=25) or single 6 mg/kg doses of unlabeled CD6- (PD1, n=8; PD2, n=16; PD3, n=15; Pcons, n=12) or DMBT1 (pbs1, n=13) derived peptides at +1 h post CLP induction. A sham group (n=3) was included. In all cases average percent survival was analyzed over time for each group and compared with the saline-treated group using the long-rank t-test (*, P<0.05; **, P<0.01; ***, P<0.001).
FIG. 8. Dose-, time- and via-dependent effects of CD6.PD3 infusion on mouse survival following CLP-induced sepsis. (A) C57BL/6 mice were i.v. infused at +1 h post CLP with saline (n=26) or single increasing doses (3 mg/kg, n=13; 6 mg/kg, n=15; and 12 mg/kg, n=8) of CD6.PD3 peptide. (B) C57BL/6 mice were i.v. infused with saline (n=4) or 6 mg/kg CD6.PD3 at different times post CLP (+1 h, n=5; +3 h, n=5; +6 h, n=6). (C) C57BL/6J mice were i.v. (n=11) or i.p. (n=9) infused with 6 mg/kg CD6.PD3 peptide or saline (n=9) at +1 h post CLP. In all cases, average percent of survival was analyzed over time and compared with the saline-treated group using a log-rank t-test (n.s., not significant; *, P<0.05. **, P<0.01; ***, P<0.001).
FIG. 10. Additive effects of combined administration of CD6.PD3 plus Imipenem/Cilastatin on mouse survival following CLP-induced sepsis. C57BL/6J mice were therapeutically infused at +1 h post CLP with saline (n=36), CD6.PD3 (6 mg/kg i.v.; n=25), Imipenem/Cilastatin (I/C, 50 mg/kg/12 h i.p.; n=9) or a combination of the two later (I/C+PD3, n=11). In all cases average percent survival was analyzed over time for each group and compared to the I/C plus CD6.PD3 group using the long-rank t-test (**, P<0.02; ***, P<0.002).
Animal procedures were approved by the Animal Experimentation Ethical Committee, University of Barcelona. High-grade mortality (≥90% mortality within the first 48-72 h) CLP-induced septic shock was induced in 8-10 week old C57BL/6J male mice (20-25 g; Charles River) as previously reported (Martinez-Florensa M, et al., 2017, Protective Effects of Human and Mouse Soluble Scavenger-Like CD6 Lymphocyte Receptor in a Lethal Model of Polymicrobial Sepsis, Antimicrob Agents Chemother 61:e01391-16).
Survival assays were analyzed by a Log-Rank χ^2 test using GraphPad Prism software. The significance of differences between experimental groups was determined by 2-tailed paired T test with 95% of confidence intervals (CI). P values were considered significant when P<0.05. Statistical analysis (mean±SEM) was performed using a 2-tailed Mann-Whitney test, with 95% of Cl.

[2] = Dynamic light scattering (DLS), hydrodynamic size of peptides in solution; format: physicochemical; conditions: 10 μg/mL in PBS, 25° C.
Experimental: FIG. 5. Analysis of the hydrodynamic size of CD6-derived peptides in solution. The dynamic light scattering (DLS) analysis of the hydrodynamic diameter of CD6 (PD1, PD2, PD3, and Pcons) and DMBT-1/SAG (pbs1) derived peptides (10 μg/mL) in PBS is shown. The y axis represents the relative intensity of the scattered light; the x axis denotes the hydrodynamic diameter of the particles present in the solution. One representative experiment of four performed is shown (left). The numeric values obtained for each peptide are also shown (right).
The hydrodynamic diameters of peptides (10 μg/mL in PBS) were measured at 25° C. in a Zetasizer Nano S from Malvern Instruments (Worcestershire, UK) equipped with a 633 nm HeNe laser, as described (Saenz A, et al., 2010, Fluidizing effects of C-reactive protein on lung surfactant membranes: protective role of surfactant protein A, FASEB J 24:3662-73). Four scans were recorded for each sample, and samples were analyzed in triplicate.

[3] = system: G+ and G− bacterial suspensions (including MDR strains); test: Bacterial agglutination assay; format: cell-based; conditions: peptide 5, 50 and 200 μg/mL; G+ and G− bacterial suspensions incl. MDR strains
Experimental: FIG. 2. Bacterial agglutination properties of CD6-derived peptides. Increasing concentrations (5, 50 and 200 μg/mL) of the indicated CD6 (PD1, PD2, and PD3), DMBT-1 (pbs1; C+) and CD5 (PD2; C-)-derived peptides were incubated for 2 h at room temperature in 96-well U-bottomed plates with alive bacterial cell suspensions (75×10^6 CFU/mL) in TTC buffer (50 mM Tris pH 7.5 plus 150 mM NaCl, 0.1% Tween 20, and 1 mM Ca^2+). Bacterial agglutination was scored and condensed by two independent observers as −, +/−, +, ++ or +++. (A) Summary of the agglutination results obtained with the indicated panel of Gram-negative (Multidrug resistant Acinetobacter baumanii clinical isolate; Enterobacter cloacae ATCC 23355; Escherichia coli ATCC 25922; Klebsiella pneumoniae ATCC 13883; […]; Pseudomonas aeruginosa ATCC 27853) and Gram-positive (Staphyloccocus aureus ATCC 25923; Methicilin-resistant Staphylococus aureus (MRSA) clinical isolate) bacterial strains. (B) Representative agglutination results obtained for the MRSA clinical isolate.
5×10^8 colony-forming units (CFU)/mL diluted in TTC buffer (50 mM Tris pH 7.5 plus 150 mM NaCl, 0.1% Tween 20, and 1 mM Ca^2+) were mixed (1:1) with different peptide concentrations (0-200 μg/mL) in 96 U-bottomed well microtiter plates (Biofil) (Bikker F J, et al., 2002, Identification of the bacteria-binding peptide domain on salivary agglutinin (gp-340/DMBT1), a member of the scavenger receptor cysteine-rich superfamily, J Biol Chem 277:32109-15). After overnight incubation at 37° C., bacterial agglutination was examined by light microscopy and scored from -(absent) to +++ (maximal) by two independent observers. […]

**Q.** For GRVEMLEHGEW [CD6.PD2], which survival [1] is on record?
**A.** 12.5%

**Q.** And the “hydrodynamic size, first (or single) peak” value (“hydrodynamic size, first” for short) [2]?
**A.** 379±5 nm

**Q.** And the bacterial agglutination [3]?
**A.** not and lower bacterial agglutination properties

**Q.** Which “survival rate post CLP” value ([1]; 3 mg/kg i.v. at +1 h post CLP, FIG. 8A) does the source give for GQVEVHFRGVW (CD6.PD3) here?
**A.** 23.08%

**Q.** What about the “survival, i.v. versus i.p. pathway” value ([1]; 6 mg/kg at +1 h post CLP, FIG. 8C) of the same sequence?
**A.** No significant differences

**Q.** And the “survival rate post CLP” value ([1]; 6 mg/kg i.v. at +1 h post CLP, FIG. 8A)?
**A.** 37.5%

**Q.** And the “survival rate post CLP” value ([1]; 6 mg/kg i.v. at +1 h post CLP, FIG. 8B)?
**A.** 40%

**Q.** And the “survival rate post CLP” value ([1]; 6 mg/kg i.v. at +3 h post CLP, FIG. 8B)?
**A.** 20%

**Q.** And the “survival rate post CLP” value ([1]; 12 mg/kg i.v. at +1 h post CLP, FIG. 8A)?
**A.** 40%

**Q.** And the mice survival ([1]; +1 h post CLP, CD6.PD3 6 mg/kg i.v., Imipenem/Cilastatin 50 mg/kg/12 h i.p., FIG. 10)?
**A.** 30.8%

**Q.** And the “effect on mice survival, in words” value [1]?
**A.** improves the survival

**Q.** What about the survival [1] of the same sequence?
**A.** 36.36%

**Q.** And the “hydrodynamic size, first” value [2]?
**A.** 630±3 nm

**Q.** What about the “hydrodynamic size, second peak” value [2] of the same sequence?
**A.** 5151±7 nm

**Q.** And the bacterial agglutination [3]?
**A.** dose-dependent agglutination

**Q.** With GTVEVRLEASW [CD6.PD1] as the sequence, how does the “effect on mice survival, in words” value [1] read?
**A.** No significant effects

**Q.** What about the “hydrodynamic size, first” value [2] of the same sequence?
**A.** 321±5 nm

**Q.** And the “hydrodynamic size, second peak” value [2]?
**A.** 1484±8 nm

**Q.** And the bacterial agglutination [3]?
**A.** dose-dependent agglutination
